In patent publication US6310095A, “Inhibitors of protein isoprenyl transferases” (University of Pittsburgh, priority 1998, dated 2001):
Where a name gives a salt, the structure may show the parent alone. Read-outs that look alike come from different tables or passages of the source. Values belong to the molecule of their own block, whether it stands above or below them.

Target: T1, protein farnesyltransferase (Rattus norvegicus, UniProt Q02293+Q04631)
T1 construct: Rat brain protein farnesyltransferase activity is measured; from tissue; host or cells: rat brain; purified according to Reiss et al., Cell 62:81-88 (1990), steps one through three
Test: in vitro inhibition of protein farnesyltransferase (scintillation proximity assay, biotin-K Ras B fragment)
Format: biochemical
Conditions: for inhibition at 10 µM: at 1 × 10^-5 M; for inhibition at 1 µM / inhibition at 0.1 µM / inhibition at 0.01 µM: read-out: % inhibition of farnesyltransferase
How it was run: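 Scintillation proximity read-out of farnesylation, using a biotinylated K Ras B fragment (0.1 mM final) in place of biotin-lamin. Enzyme purified from rat brain; results given as % inhibition.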

Molecule: CSCC[C@H](NC(=O)c1ccc(COCc2occc2-c2ccc(Cl)cc2)cc1-c1ccccc1C)C(=O)[O-].[Li+] [Example 827]
% inhibition of farnesyltransferase (at 1 × 10^-8 M): 77%

% inhibition of farnesyltransferase (at 1 × 10^-6 M): 48%
Molecule: CSCC[C@H](NC(=O)c1ccc(S(=O)(=O)NCCN2CCCCC2)cc1-c1ccccc1C)C(=O)O [Example 774]

inhibition at 10 µM: 76%
Molecule: CSCC[C@H](NC(=O)c1ccc(CNc2cc(C)ns2)cc1-c1ccccc1)C(=O)O [Example 373]

inhibition at 1 µM (at 1 × 10^-6 M): 76%
Molecule: CCSC[C@H](CC1CCCCC1)NCc1ccc(C(=O)N(C)[C@@H](CCSC)C(=O)O)c(-c2ccccc2C)c1 [Example 765, lithium salt]

Molecule: CSCC[C@H](NC(=O)c1ccc(CCc2ccc(C3CCCCC3)cc2)cc1-c1ccccc1C)C(=O)[O-].[Li+] [Example 461]
% inhibition of farnesyltransferase (at 1 × 10^-7 M): 93%

inhibition at 1 µM (at 1 × 10^-6 M): 94%
Molecule: CSCC[C@H](NC(=O)c1ccc(CN(Cc2ccccc2)Cc2cccc(Oc3ccccc3)c2)cc1-c1ccccc1C)C(=O)O [Example 514, N-[4-N-(3-phenoxybenzyl)-N-benzylaminomethyl-2-(2-methylphenyl)benzoyl]methionine lithium salt]

% inhibition of farnesyltransferase (at 1 × 10^-8 M): 83%
Molecule: CSCC[C@H](NC(=O)c1ccc(CO[C@H](CSC(C)(C)C)Cc2ccccc2)cc1-c1ccccc1C)C(=O)O [Example 994]

Molecule: N-[4-(3-furan-2-yl-2-phenylprop-2-en-1-ylaminomethyl)-2-(2-methylphenyl)benzoyl]methionine lithium salt [Example 537]
% inhibition of farnesyltransferase (at 1 × 10^-6 M): 97%

% inhibition of farnesyltransferase (at 1 × 10^-6 M): 77%
Molecule: CSCC[C@H](NC(=O)c1cc(Cc2ccccc2)c(COCc2ccco2)cc1-c1ccccc1C)C(=O)O [Example 924]

inhibition at 0.1 µM (at 1 × 10^-7 M): 97%
Molecule: CSCC[C@H](NC(=O)c1ccc(CN[C@H](CO)C2CCCCC2)cc1-c1ccccc1C)C(=O)O [Example 520, N-[4-N-(2-cyclohexyl-1-ethan-1-ol-2-yl)aminomethyl-2-(2-methylphenyl)benzoyl]methionine lithium salt]

Molecule: CCCCC(OCc1ccc(C(=O)N[C@@H](CCSC)C(=O)[O-])c(-c2ccccc2C)c1)c1ccc(-c2ccc(Cl)cc2)o1.[Li+] (stereo partly drawn) [Example 826]
% inhibition of farnesyltransferase (at 1 × 10^-8 M): 92%

% inhibition of farnesyltransferase (at 1 × 10^-6 M): 96%
Molecule: CSCC[C@H](NC(=O)c1ccc(COCc2ccc(CN(C)C)o2)cc1-c1ccccc1C)C(=O)O [Example 435]

Molecule: CSCC[C@H](NC(=O)c1ccc(COCc2cc3ccccc3o2)cc1-c1ccccc1C)C(=O)[O-].[Li+] [Example 533]
% inhibition of farnesyltransferase (at 1 × 10^-7 M): 91%

% inhibition of farnesyltransferase (at 1 × 10^-6 M): 98%
Molecule: CSCC[C@H](NC(=O)c1ccc(CCCCC2CCCCC2)cc1-c1ccccc1C)C(=O)O [Example 478]

inhibition at 0.01 µM (at 1 × 10^-8 M): 90%
Molecule: CSCC[C@H](NC(=O)c1ccc(CN(CCc2ccccc2)c2cncnc2)cc1-c1ccccc1C)C(=O)O [Example 518, N-[4-N-(2-phenyethyl)-N-pyrimidin-5-ylaminomethyl-2-(2-methylphenyl)benzoyl]methionine lithium salt]

Molecule: CSCC[C@H](NC(=O)c1ccc(COCc2cccc(C)c2)cc1-c1ccccc1C)C(=O)[O-].[Li+] [Example 578]
% inhibition of farnesyltransferase (at 1 × 10^-7 M): 90%

inhibition at 10 µM: 55%
Molecule: CSCC[C@H](NC(=O)c1ccc(CNc2cccc(CCC(=O)O)c2)cc1-c1ccccc1)C(=O)O [Example 685]

inhibition at 1 µM (at 1 × 10^-6 M): 90%
Molecule: CSCC[C@H](NC(=O)c1ccc(CN(C)CC(O)CO)cc1-c1ccccc1C)C(=O)O (stereo partly drawn) [Example 719]

% inhibition of farnesyltransferase (at 1 × 10^-6 M): 88%
Molecule: Cc1ccccc1-c1cc(COCc2ccccc2)ccc1C(=O)N[C@@H](CCS(C)(=O)=O)C(=O)O [Example 576]

inhibition at 0.1 µM (at 1 × 10^-7 M): 94%
Molecule: CCCC[C@H](CC1CCCCC1)NCc1ccc(C(=O)N[C@@H](CCSC)C(=O)O)c(-c2ccccc2C)c1 [Example 615, N-[4-(6-cyclohexylhexan-5-ylaminomethyl)-2-(2-methylphenyl)benzoyl]methionine Lithium Salt]

inhibition at 0.01 µM (at 1 × 10^-8 M): 78%
Molecule: COc1cccc(N(Cc2ccccc2)Cc2ccc(C(=O)N[C@@H](CCSC)C(=O)O)c(-c3ccccc3C)c2)c1 [Example 833, N-[4-N-benzyl-N-3-methoxyphenylaminomethyl-2-(2-methylphenyl)benzoyl]methionine lithium salt]

Molecule: CSCC[C@H](NC(=O)c1ccc(C#Cc2cncnc2)cc1-c1ccccc1C)C(=O)[O-].[Li+] [Example 493]
% inhibition of farnesyltransferase (at 1 × 10^-7 M): 51%

inhibition at 0.01 µM (at 1 × 10^-8 M): 84%
Molecule: CCCCN(CCc1ccccc1)Cc1ccc(C(=O)N[C@@H](CCSC)C(=O)O)c(-c2ccccc2C)c1 [Example 928, N-[4-(N-Butyl-N-(2-phenylethyl)aminomethyl)-2-(2-methylphenyl)benzoyl]methionine]

Molecule: CSCC[C@H](NC(=O)c1ccc(COc2ccc(Oc3ccccc3)cc2)cc1-c1ccccc1C)C(=O)[O-].[Li+] [Example 795]
% inhibition of farnesyltransferase (at 1 × 10^-7 M): 87%

% inhibition of farnesyltransferase (at 1 × 10^-6 M): 93%
Molecule: CSCC[C@H](NC(=O)c1ccc(COC2CCN(Cc3ccccc3)C2)cc1-c1ccccc1C)C(=O)O (stereo partly drawn) [Example 987]

inhibition at 1 µM (at 1 × 10^-6 M): 95%
Molecule: CSCC[C@H](NC(=O)c1ccc(NCC(CO)CC2CCCCC2)cc1-c1ccccc1C)C(=O)O (stereo partly drawn) [Example 479, N-[4-N-(2-cyclohexylmethyl-3-hydroxypropyl)amino-2-(2-methylphenyl)benzoyl]methionine]

Molecule: CSCC[C@H](NC(=O)c1ccc(CN(CCC2CCCCC2)Cc2ccccc2)cc1-c1ccccc1C)C(=O)O [Example 605, N-[4-(N-benzyl-N-(2-cyclohexylethyl)aminomethyl)-2-(2-methylphenyl)benzoyl]methionine Lithium Salt]
inhibition at 0.01 µM: 68%

Molecule: CSCC[C@H](NC(=O)c1ccc(CSCc2ccccc2)cc1-c1ccccc1C)C(=O)[O-].[Li+] [Example 554]
% inhibition of farnesyltransferase (at 1 × 10^-6 M): 96%

inhibition at 0.1 µM (at 1 × 10^-7 M): 97%
Molecule: CSCC[C@H](NC(=O)c1ccc(CNC(Cc2ccccc2)Cc2ccccc2)cc1-c1ccccc1C)C(=O)O [Example 523, N-[4-N-(1,3-diphenylpropan-2-yl)aminomethyl-2-(2-methylphenyl)benzoyl]methionine lithium salt]

inhibition at 0.01 µM (at 1 × 10^-8 M): 95%
Molecule: CSCC[C@H](NC(=O)c1ccc(CN(CCC2CCCCC2)C2CC2)cc1-c1ccccc1C)C(=O)O [Example 880, N-[4-(N-2-Cyclohexylethyl-N-cyclopropylaminomethyl)-2-(2-methylphenyl)benzoyl]methionine]

Molecule: CSCC[C@H](NC(=O)c1ccc(CN(CCC2CCCCC2)C(C)=O)cc1-c1ccccc1C)C(=O)O [Example 609, N-[4-(N-acetyl-N-(2-cyclohexylethyl)aminomethyl)-2-(2-methylphenyl)benzoyl]methionine Lithium Salt]
inhibition at 0.1 µM: 95%

inhibition at 1 µM (at 1 × 10^-6 M): 97%
Molecule: CSCC[C@H](NC(=O)c1ccc(NC[C@@H]2CSCN2)cc1-c1ccccc1)C(=O)O [Example 166, [4-((R)-thiazolidin-4-ylmethyl)amino-2-phenylbenzoyl]methionine hydrochloride]

% inhibition of farnesyltransferase (at 1 × 10^-6 M): 81%
Molecule: Cc1ccccc1-c1cc(CCc2ccccc2Oc2ccccc2)ccc1C(=O)N[C@@H](CC[S+](C)[O-])C(=O)O (stereo partly drawn) [Example 456]

% inhibition of farnesyltransferase (at 1 × 10^-6 M): 93%
Molecule: Cc1ccccc1-c1cc(CN(C2CC2)C2(CC3CCCCC3)CCC2)ccc1C(=O)N[C@@H](CCS(C)(=O)=O)C(=O)O [Example 334]

Molecule: CSCC[C@H](NC(=O)c1ccc(COCCc2ccccc2)cc1-c1ccccc1C)C(=O)[O-].[Li+] [Example 587]
% inhibition of farnesyltransferase (at 1 × 10^-6 M): 97%

% inhibition of farnesyltransferase (at 1 × 10^-6 M): 54%
Molecule: CSCC[C@H](NC(=O)c1ccc(CN(C(C)C)C(C)(C)Cc2ccccc2)cc1-c1ccccc1C)C(=O)O [Example 317]

Molecule: CSCC[C@H](NC(=O)c1ccc(COCc2ccc(-c3ccc(C=O)cc3)o2)cc1-c1ccccc1C)C(=O)[O-].[Li+] [Example 448]
% inhibition of farnesyltransferase (at 1 × 10^-7 M): 92%

inhibition at 1 µM (at 1 × 10^-6 M): 55%
Molecule: CSCC[C@H](NC(=O)c1ccc(CN[C@@H](/C=C\CC(C)C)CC2CCCCC2)cc1-c1ccccc1)C(=O)O [Example 665]

% inhibition of farnesyltransferase (at 1 × 10^-7 M): 90%
Molecule: CSCC[C@H](NC(=O)c1ccc(COCc2ccccc2)cc1-c1ccccc1C)C(=O)NS(=O)(=O)c1ccccc1 [Example 580]

inhibition at 0.01 µM (at 1 × 10^-8 M): 95%
Molecule: CSCC[C@H](NC(=O)c1ccc(CN(Cc2ccccc2)c2cncnc2)cc1-c1ccccc1C)C(=O)O [Example 836, N-[4-N-benzyl-N-pyrimidin-5-ylaminomethyl-2-(2-methylphenyl)benzoyl]methionine lithium salt]

inhibition at 0.01 µM (at 1 × 10^-8 M): 96%
Molecule: CSCC[C@H](NC(=O)c1ccc(CN(Cc2ccccc2)c2ccc([N+](=O)[O-])cc2)cc1-c1ccccc1C)C(=O)O [Example 843, N-[4-(N-benzyl-N-(4-nitrophenyl)aninomethyl)-2-(2-methylphenyl)benzoyl]methionine lithium salt]

inhibition at 1 µM (at 1 × 10^-6 M): 61%
Molecule: CSCC[C@H](NC(=O)c1ccc(CNCCS)cc1-c1ccccc1)C(=O)O [Example 626]

Molecule: CSCC[C@H](NC(=O)c1ccc(CCc2ccccc2Oc2ccccc2)cc1-c1ccccc1C)C(=O)[O-].[Li+] [Example 455]
% inhibition of farnesyltransferase (at 1 × 10^-7 M): 83%

% inhibition of farnesyltransferase (at 1 × 10^-7 M): 96%
Molecule: CSCC[C@H](NC(=O)c1ccc(CSc2nnc[nH]2)cc1-c1ccccc1C)C(=O)O [Example 735]

% inhibition of farnesyltransferase (at 1 × 10^-6 M): 96%
Molecule: CSCC[C@H](NC(=O)c1ccc(CCc2ccc3ccccc3c2)cc1-c1ccccc1C)C(=O)O [Example 468]

inhibition at 1 µM (at 1 × 10^-6 M): 34%
Molecule: CSCC[C@H](NC(=O)c1ccc(CNCCN2CCCC2)cc1-c1ccccc1)C(=O)O [Example 641]

Molecule: CSCC[C@H](NC(=O)c1ccc(NC(=O)C2=C(C(F)(F)F)C=CNC2)cc1-c1ccccc1)C(=O)O [Example 283, [4-(1H-4-trifluoromethyl-1,2-dihydropyrid-3-ylcarbonylamino)-2-phenylbenzoyl]methionine sodium salt]
inhibition at 1 µM: 98%

inhibition at 10 µM: 69%
Molecule: CSCC[C@H](NC(=O)c1ccc(CNCc2cc(Cl)cc(Cl)c2)cc1-c1ccccc1)C(=O)O [Example 712]
